# Assay results from US6414035B1, “Use of polyols in combating yeast infection and polyol preparations for said use” (priority 1997, dated 2002).
# Marks after values point to notes of the source that are not given here.
# Key:
# [1] = test system: Candida isolate from AIDS patient No 1; assay: Sensitivity test of Candida isolate to antifungals; type: cell-based; settings: for sensitivity of the isolate: Candida isolate from AIDS patient No 1
# [2] = test system: Candida (oral or esophageal candidiasis); assay: Open label pilot trial of dietary xylitol intake in AIDS patients with candida mucositis; type: in vivo, human; design: pain symptoms (score) / Sympt. score: scale not given here
# Text: An open label, pilot trial was designed to test the effect of the strategy of dietary xylitol intake in replacement of sugar in patients with candida mucositis. AIDS patients with oral or esophageal candidiasis were selected as subjects for the study because of the frequency and the severity of candida mucositis that they usually develop. Patients with AIDS were considered eligible for the test after their oral or esophageal lesions were documented by microscopic examination of scrapings to be of Candida origin. They were free to continue on any antifungal therapy they might be receiving. Instructions were given to replace the saccharose that they normally take with coffee or tea for crystalline xylitol. Also, to avoid excess sweets like ice cream, cakes. cookies, and artificially flavored drinks that contain glucose. The following was done at baseline and thereafter every 7 days: 1. Pictures of the lesions 2. Tongue imprints in Sabouraud agar 3. Quantitative Candida cultures on unstimulated saliva (CFU/ml) 4. Pain questionnaire (numerical pain scale) 5. Weight 6. Patients kept a daily record of food and drink.
# [3] = test system: salivary Candida; settings: diet of human test group during 8 months; cited from earlier work
# [4] = test system: Candida (recurrent oral candidiasis); assay: Pilot study of xylitol replacing dietary saccharose in patients with recurrent oral candidiasis; type: in vivo, human
# Text: A pilot study was designed to test the effect of xylitol on the clinical course, Candida salivary counts, and antifungal needs of patients with recurrent oral candidiasis. The patients were instructed to replace their dietary saccharose with crystalline xylitol and to avoid excess saccharose-containing-foods and beverages.
# Of 14 patients admitted to the test, 8 completed more than 14 days of follow up. The result was that all 8/8 experienced at least 70% regression of their lesions (improvement) with minimal antifungal therapy (1 nystatin tablet 500,000 U/per day); 5/8 had complete regression of the lesions (cure); and 6/8 decreased their salivary Candida counts by 2 logs.
# [5] = test system: Candida isolate from AIDS patient No 1; assay: Growth of Candida isolate on Muller Hinton agar with sugar or sugar alcohol; type: cell-based; settings: 5 and 10%, FIG. 1
# Description: The effect of sugar alcohols on the growth of said Candida isolate was tested on Muller Hinton agar with 5 and 10% glucose or 5 and 10% xylitol and a control without sugar.
# [6] = test system: Candida; settings: cited from earlier work
# [7] = test system: Candida albicans; assay: Growth in vitro of Candida albicans in Muller Hinton broth with sweeteners (optical density 650 nm); type: cell-based; settings: 10% concentration, 12 strains
# Text: A test was designed to determine the effect on the growth in vitro of Candida albicans of xylitol, lactitol, sorbitol and aspartame in comparison to glucose and a non-carbohydrate control medium. The tested substances have all been used in the food industry as sweeteners. The sweetness of the substances in the above order is respectively 100%, 40%, 60% and 20.000% of the sweetness of glucose.
# 12 strains of Candida albicans obtained from patients with AIDS and oral candida mucositis were evaluated. The strains were inoculated on Sabouraud agar plates (20% dextrose) and incubated at room temperature for 48 hours. One colony from each plate was inoculated in Muller Hinton broth (without sweetener) and left for 18 hours at 35° C. The tubes were standardized to Mac Farland 0.5 (5×10^6 CFU/ml) and 100 μl inoculated in triplicate in spectrophotometer tubes containing 3 ml of Muller Hinton broth at final concentrations of glucose (5% and 10%); xylitol (5% and 10%); lactitol (5%, 8.3% and 10%); sorbitol (5%, 10% and 12.5%); and aspartame (0.025% and 0.05%). 3 tubes with Muller Hinton broth without carbohydrate was also inoculated to serve as controls.
# Optical densities (650 nm) were determined at 0, 24 and 48 hours time. The average of three readings per time, per sweetener concentration was calculated and recorded. […]
compound,measurement,setting,value
C[C@@H]1[C@H](O)[C@@H](C)/C=C/C=C/C=C/C=C/C=C/C=C/C=C/[C@H](O[C@@H]2O[C@H](C)[C@@H](O)[C@H](N)[C@@H]2O)C[C@@H]2O[C@](O)(C[C@@H](O)C[C@@H](O)[C@H](O)CC[C@@H](O)C[C@@H](O)CC(=O)O[C@H]1C)C[C@H](O)[C@H]2C(=O)O [Amphotericin B],sensitivity of the isolate,[1],sensitive
OC(Cn1cncn1)(Cn1cncn1)c1ccc(F)cc1F [Fluconazole],follow up esophagoscopy,"[2]; AIDS patient No 2, a month later, fluconazole p.o. for 15 days during xylitol trial",no lesions
same,MIC,[1]; Candida,> 256 µg/mL
same,sensitivity of the isolate,[1],resistant
O=C(CO)[C@@H](O)[C@H](O)[C@H](O)CO [fructose],number of persons with salivary Candida growth,[3],slight increase
OC[C@H]1O[C@@](CO)(O[C@H]2O[C@H](CO)[C@@H](O)[C@H](O)[C@H]2O)[C@@H](O)[C@@H]1O [sucrose],number of persons with salivary Candida growth,[3],slight increase
OC[C@@H](O)[C@H](O)[C@@H](O)CO [xylitol],esophageal lesions,"[2]; AIDS patient No 2, Candida esophagitis, two weeks after start of xylitol intake, no antifungal therapy",unchanged lesions
same,Sympt. score,"[2]; AIDS patient No 2, day 1",18
same,Weight,"[2]; AIDS patient No 2, day 1","58,5 Kg"
same,CFU/ml saliva,"[2]; AIDS patient No 2, day 7",0 CFU/ml
same,Sympt. score,"[2]; AIDS patient No 2, day 7",0
same,Weight,"[2]; AIDS patient No 2, day 7","58,5 Kg"
same,Sympt. score,"[2]; AIDS patient No 2, day 15",0
same,Weight,"[2]; AIDS patient No 2, day 15","58,5 Kg"
same,CFU/ml saliva,"[2]; AIDS patient No 2, day 15, counted at 72 hours","3,6 × 10^3** CFU/ml"
same,Sympt. score,"[2]; AIDS patient No 2, day 22",0
same,Weight,"[2]; AIDS patient No 2, day 22","57,5 Kg"
same,CFU/ml saliva,"[2]; AIDS patient No 2, day 22, counted at 72 hours, fluconazole p.o. started after two weeks","4,5 × 10^2** CFU/ml"
same,Sympt. score,"[2]; AIDS patient No 2, day 29",0
same,Weight,"[2]; AIDS patient No 2, day 29","57,2 Kg"
same,CFU/ml saliva,"[2]; AIDS patient No 2, day 29, fluconazole p.o. started after two weeks",0 CFU/ml
same,Sympt. score,"[2]; AIDS patient No 2, day 36",0
same,Weight,"[2]; AIDS patient No 2, day 36","57,7 Kg"
same,CFU/ml saliva,"[2]; AIDS patient No 2, day 36, fluconazole p.o. 15 days given after two weeks",0 CFU/ml
same,Sympt. score,"[2]; AIDS patient No 2, day 50",0
same,Weight,"[2]; AIDS patient No 2, day 50","56,9 Kg"
same,CFU/ml saliva,"[2]; AIDS patient No 2, day 50, fluconazole p.o. 15 days given after two weeks",0 CFU/ml
same,symptom-free follow-up period,"[2]; AIDS patient No. 1, about 30 g crystalline xylitol daily",80 days
same,Candida counts,"[2]; AIDS patient No. 1, after 2.5 months",still negative
same,Sympt. score,"[2]; AIDS patient No. 1, day 1",18
same,Weight,"[2]; AIDS patient No. 1, day 1",62 kg
same,CFU/mL saliva,"[2]; AIDS patient No. 1, day 1, counted at 48 hours",1×10^4 CFU/mL
same,Sympt. score,"[2]; AIDS patient No. 1, day 8",0
same,Weight,"[2]; AIDS patient No. 1, day 8",62.6 kg
same,CFU/mL saliva,"[2]; AIDS patient No. 1, day 8, plates held for 7 days",0** CFU/mL
same,Sympt. score,"[2]; AIDS patient No. 1, day 18",0
same,Weight,"[2]; AIDS patient No. 1, day 18",73.4 kg
same,CFU/mL saliva,"[2]; AIDS patient No. 1, day 18, plates held for 7 days",0** CFU/mL
same,Sympt. score,"[2]; AIDS patient No. 1, day 29",0
same,Weight,"[2]; AIDS patient No. 1, day 29",73 kg
same,CFU/mL saliva,"[2]; AIDS patient No. 1, day 29, plates held for 7 days",0** CFU/mL
same,Sympt. score,"[2]; AIDS patient No. 1, day 36",0
same,Weight,"[2]; AIDS patient No. 1, day 36",74.8 kg
same,CFU/mL saliva,"[2]; AIDS patient No. 1, day 36, plates held for 7 days",0** CFU/mL
same,Sympt. score,"[2]; AIDS patient No. 1, day 56",0
same,Weight,"[2]; AIDS patient No. 1, day 56",75 kg
same,CFU/mL saliva,"[2]; AIDS patient No. 1, day 56, plates held for 7 days",0** CFU/mL
same,Sympt. score,"[2]; AIDS patient No. 1, day 80",0
same,Weight,"[2]; AIDS patient No. 1, day 80",75.1 kg
same,CFU/mL saliva,"[2]; AIDS patient No. 1, day 80, plates held for 7 days",0** CFU/mL
same,Candida counts,"[2]; AIDS patient No. 1, day seven",negative
same,weight gained,"[2]; AIDS patient No. 1, follow-up of 80 days",13.1 kilograms
same,time to disappearance of the lesions,"[2]; AIDS patient No. 1, ketoconazole discontinued on day four",1 week
same,improvement noticed by the patient,"[2]; AIDS patient No. 1, on ketoconazole until day four",clear improvement on day four
same,time to recurrence of oral candidiasis after stopping the xylitol trial,[2]; AIDS patient No. 3,4 days
same,pain symptoms (score),"[2]; AIDS patient No. 3, at start",30
same,saliva counts,"[2]; AIDS patient No. 3, first 17 days",diminished
same,pain symptoms (score),"[2]; AIDS patient No. 3, in the first 17 days, 1 nystatin troche during the first five days",8
same,lesions and fungal cultures after 4 months of xylitol intake,"[4]; 1 patient, previously fluconazole resistant isolate (E test)",without lesions and sterile fungal cultures
same,patients who decreased their salivary Candida counts by 2 logs,[4]; more than 14 days follow up,6/8
same,patients with complete regression of the lesions (cure),[4]; more than 14 days follow up,5/8
same,patients with at least 70% regression of their lesions (improvement),"[4]; more than 14 days follow up, with minimal antifungal therapy (1 nystatin tablet 500,000 U/per day)",8/8
same,time to return to baseline after returning to saccharose intake,[4]; three patients,3 days
same,number of persons with salivary Candida growth,[3],significantly reduced
same,growth of Candida isolate compared to control without sugar,[5],inhibited in a dose dependent way
same,Candida growth and invasion compared to controls,[6]; given instead of glucose,did not increase
same,invasion of gastrointestinal mucosa by Candida relative to mice receiving glucose,[6]; immunocompromised mice,five times less
same,scores of invasion versus control mice receiving no sugar,[6]; immunocompromised mice,not significantly different
same,rank among tested compounds at reducing the growth of Candida in vitro,[7],by far the best
